Assay results taken from patent US10626100B2, “Selective HDAC6 inhibitors” (The Trustees of Columbia University in the City of New York, priority 2013, dated 2020).
“Also recorded” adds a separate entry of the source.

Key:
[1] = target: HDAC1 (Homo sapiens, UniProt Q13547); assay: Inhibition of recombinant HDAC1; type: biochemical; conditions: read-out: IC50 (nM) HCAC1
[2] = tested on: acetylated alpha-tubulin and acetylated histone H3 in LNCaP (human prostate cancer cells); assay: Accumulation of acetylated proteins in LNCaP cells (western blot); type: cell-based; conditions: LNCaP cells, FIG. 2
Experimental: FIG. 2. Blot showing accumulation of acetylated alpha-tubulin and acetylated histone H3 in LNCaP (human prostate cancer cells) cultured with compounds 8 or 11. GADPH used as loading control.
FIG. 5. Western blots of acetylated alpha-tubulin (Acet-Tub) and acetylated histone H3 (Acet-H3) in HFS (normal) and LNCaP (transformed) cells treated with compound 8 at 8, 16, 32, and 64 μM for 24 h. Western blots of GAPDH and total histone H3 (Total-H3) are loading controls.
(§1) Recombinant HDAC1 and HDAC6 are used to evaluate the selective inhibitory potency of each compound. Cell based assays: Normal cells (Human Foreskin Fibroblast cells), LNCaP (human prostate cancer cells), MCF-7 (human breast cancer cells, A549 (human adenocarcinoma of lung cells) and ARP-1 (human multiple myeloma cells) are used in these assays. Cells were cultured for up to 72 hr without and with the potential HDAC6-selective inhibitor. SAHA was used as a control. Cell number and cell viability were determined by enumeration. Proteins were extracted from cells and assayed for accumulation of acetylated tubulin and acetylated histones. All methods are described in Namdar et al., PNAS, 2010, 107:20003-8. In vivo animal studies: Potential HDAC6 inhibitor compounds are further assayed by administration to mice for up to 5 days with daily injections. Animals are sacrificed and tissues are analyzed for accumulation of acetylated tubulin and acetylated histones.

[3] = target: T1, HDAC6 (Homo sapiens, UniProt Q9UBN7); assay: Inhibition of recombinant HDAC6; conditions: for Ratio: HDAC1/HDAC6: ratio of IC50 HDAC1 to IC50 HDAC6
T1 sequence (Q9UBN7 1-1215): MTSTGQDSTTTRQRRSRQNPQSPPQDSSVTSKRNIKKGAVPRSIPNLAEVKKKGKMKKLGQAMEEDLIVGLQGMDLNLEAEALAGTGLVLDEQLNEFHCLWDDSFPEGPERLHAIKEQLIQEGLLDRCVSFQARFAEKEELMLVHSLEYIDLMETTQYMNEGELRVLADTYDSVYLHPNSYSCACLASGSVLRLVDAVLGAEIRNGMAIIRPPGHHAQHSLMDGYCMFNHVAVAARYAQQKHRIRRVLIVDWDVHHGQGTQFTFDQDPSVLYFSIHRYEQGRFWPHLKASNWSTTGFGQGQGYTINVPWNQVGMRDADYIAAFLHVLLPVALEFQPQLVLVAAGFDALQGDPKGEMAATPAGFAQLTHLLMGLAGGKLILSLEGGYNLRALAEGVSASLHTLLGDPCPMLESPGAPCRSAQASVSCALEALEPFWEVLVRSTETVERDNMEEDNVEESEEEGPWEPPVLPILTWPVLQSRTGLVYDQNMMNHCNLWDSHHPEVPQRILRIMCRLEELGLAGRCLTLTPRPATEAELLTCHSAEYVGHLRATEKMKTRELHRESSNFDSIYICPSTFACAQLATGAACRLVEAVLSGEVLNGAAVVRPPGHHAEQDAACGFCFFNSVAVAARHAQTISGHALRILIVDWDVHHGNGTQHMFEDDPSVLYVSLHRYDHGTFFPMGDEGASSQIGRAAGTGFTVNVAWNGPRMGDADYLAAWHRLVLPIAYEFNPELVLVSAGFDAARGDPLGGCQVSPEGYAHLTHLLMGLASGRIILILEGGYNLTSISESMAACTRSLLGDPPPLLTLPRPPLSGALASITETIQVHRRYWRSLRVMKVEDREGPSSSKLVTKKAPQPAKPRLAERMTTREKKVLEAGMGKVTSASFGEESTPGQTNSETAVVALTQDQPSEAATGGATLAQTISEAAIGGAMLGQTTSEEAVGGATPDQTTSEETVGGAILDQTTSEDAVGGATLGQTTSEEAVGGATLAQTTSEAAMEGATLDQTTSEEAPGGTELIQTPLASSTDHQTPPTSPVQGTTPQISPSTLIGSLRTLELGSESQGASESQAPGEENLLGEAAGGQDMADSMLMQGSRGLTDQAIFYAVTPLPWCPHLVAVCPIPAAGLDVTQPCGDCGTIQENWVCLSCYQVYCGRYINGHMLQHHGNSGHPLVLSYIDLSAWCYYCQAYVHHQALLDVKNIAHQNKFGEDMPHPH

[4] = tested on: androgen-dependent CWR22 human prostate cancer xenograft; assay: CWR22 human prostate cancer xenograft in nude mice; type: in vivo; conditions: 21 days; daily 300 mg/kg compound 8 or weekly 3 mg/kg etoposide alone
[5] = tested on: acetylated alpha-tubulin and histones in CWR22 tumors and spleen; assay: Acetylated lysine patterns in CWR22 tumors and spleen; type: in vivo, nude mice
From the text: Tumors and spleen are removed from the animals, and histones and proteins are extracted for the detection of acetylated lysine patterns.

[6] = tested on: acetylated alpha-tubulin and acetylated histone H3 in LNCaP (human prostate cancer cells); conditions: SAHA; literature cited, cells not given; cited from earlier work
[7] = tested on: LNCaP (human prostate adenocarcinoma) cells; assay: Cell growth and viability of LNCaP cells; type: cell-based; conditions: SAHA control
Experimental: FIG. 3. Cell growth of HFS (normal) and LNCaP (transformed) cells treated with compound 8 over 72 h.
FIG. 4. Cell viability of HFS (normal) and LNCaP (transformed) cells treated with compound 8 over 72 h.
as §1
The effect of compound 8 on the cell growth and viability of normal (HFS, human foreskin fibroblast) and transformed (LNCaP, human prostate adenocarcinoma) cells cultured with 8, 16, 32 or 64 μM HPB for up to 72 h was evaluated.

Chain of HDAC1 (Q13547 whole entry): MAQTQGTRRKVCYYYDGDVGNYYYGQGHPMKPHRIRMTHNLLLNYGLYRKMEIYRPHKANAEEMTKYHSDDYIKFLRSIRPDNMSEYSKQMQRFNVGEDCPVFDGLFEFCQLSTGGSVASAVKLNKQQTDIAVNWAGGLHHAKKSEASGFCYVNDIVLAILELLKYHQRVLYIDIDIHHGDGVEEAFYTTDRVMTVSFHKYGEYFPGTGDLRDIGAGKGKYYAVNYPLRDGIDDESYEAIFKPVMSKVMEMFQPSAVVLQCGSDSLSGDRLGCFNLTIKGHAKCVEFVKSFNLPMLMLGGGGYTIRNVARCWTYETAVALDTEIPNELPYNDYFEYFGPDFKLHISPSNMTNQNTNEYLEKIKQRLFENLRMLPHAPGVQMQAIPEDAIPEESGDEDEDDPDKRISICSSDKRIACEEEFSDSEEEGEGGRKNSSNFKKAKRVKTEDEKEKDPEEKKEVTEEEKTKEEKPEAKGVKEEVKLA

## O=C(NO)c1ccc(CN(CCO)C(=O)c2ccccc2)cc1 [Compound 11, N-hydroxy-4-((N-(2-hydroxyethyl)-2-benzamido)methyl)benzamide]
[1]
  IC50: 270 nM
[2]
  accumulation of acetylated histones (H3): did not cause accumulation of actylated histones; also recorded: without induction of H3 acetylation
  accumulation of acetylated α-tubulin: caused the accumulation of acetylated α-tubulin; also recorded: significant levels of tubulin acylation were present
[3]
  IC50: 11 nM
  Ratio: HDAC1/HDAC6: 24.54

## COc1cc([C@@H]2c3cc4c(cc3[C@@H](O[C@@H]3O[C@@H]5CO[C@@H](C)O[C@H]5[C@H](O)[C@H]3O)[C@H]3COC(=O)[C@H]23)OCO4)cc(OC)c1O [etoposide, reference compound]
[4]
  growth of established CWR22 tumors, single agent: no significant suppression of the growth
  weight loss, single agent: no weight loss
[5]; mice injected with compound 8 alone or etoposide
  accumulation of histones in tumors, single agent: Increased levels of accumulation of histones
[5]; mice treated with compound 8 or etoposide
  accumulation of acetylated alpha-tubulin in CWR22 tumors and spleen, single agent: increased accumulation of acetylated alpha-tubulin

## O=C(CCCCCCC(=O)Nc1ccccc1)NO [SAHA, suberoylanilide hydroxamic acid, reference compound]
[6]
  accumulation of acetylated alpha-tubulin: induced the accumulation of acetylated alpha-tubulin and histone H3
  accumulation of acetylated histone H3: induced the accumulation of acetylated alpha-tubulin and histone H3
[7]
  death of LNCaP cells: kills LNCaP cells
[3]
  Ratio: HDAC1/HDAC6: 3.09

## O=C(CCCCCCC(=O)Nc1ccc([C@H]2O[C@@H](CSc3nc(-c4ccccc4)c(-c4ccccc4)o3)C[C@@H](c3ccc(CO)cc3)O2)cc1)NO [Tubacin, reference compound]
[1]
  IC50: 193 nM
